Test results taken from PMC11219871, “Epigenetic-based differentiation therapy for Acute Myeloid Leukemia” (Nature Communications, 2024).
“And” between values parts separate entries of the source, which are not always exact repeats. Equal values may be shown once.

What was measured:
ML-2 [1] = assay: Differentiation-apoptosis assay, CD11b / annexin-V / Sytox Green / myeloid markers flow cytometry; type: cell-based, human; set-up: Cell viability: concentration or dose not given beside the values
Procedure: Next, the cells were washed twice with phosphate-buffered saline (PBS) and resuspended in 1X Binding Buffer at a concentration of 1 × 10^6 cells/mL. An 8-µL aliquot of APC-CD11b (BD Pharmingen, Franklin Lakes, NJ, USA) and 1 µL of FITC annexin-V (AV) (BD Pharmingen, Franklin Lakes, NJ, USA) antibodies were added and incubated for 15 min at room temperature in the dark. Finally, after the addition of 400 µL of 1X Binding Buffer to each tube, samples were collected on a BD FACSCanto flow cytometer (Becton Dickinson, San Jose, CA, USA) and analyzed using FlowJo software.
For the rest of experiments, the mix of antibodies (2 µL of BV786-CD13, Cat No, 744748 BD; 1 µL of diluted 1:10 antibody of PB-HLADR, Cat No 307633, Biolegend; 5 µL of APCH7-CD14, Cat No 641394, BD) was added to 10 µL of Brilliant Stain Buffer Plus (Becton Dickinson, San Jose, CA, USA). Then, 1 million cells (volume of 250 µL) were added and incubated for 30 min at room temperature in darkness. After 10 min incubation at room temperature with 2 mL of FACSLysing 1X, cells were centrifuged at 540 g for 5 min and washed twice with FACSBuffer. Finally, after centrifugation at 540 g for 5 min cells were resuspended in FACSBuffer.

ML-2 [2] = assay: Acetylome analysis (Acetyl-K enrichment, LC-MS/MS); type: cell-based, human
Procedure: Cellular pellets were lysed for 15 min at 95 °C in 4% SDS, 100 mM Hepes/NaOH pH 8.0, containing 5 mM sodium butyrate and 5 mM Nicotinamide. After cooling down, lysates were incubated at 25 °C with 10 units of DNAse (Benzonase, Merk) and sonicated for 15 min in a Bioruptor for DNA shearing. Protein concentration was determined using microBCA, using BSA as standard. Samples were digested using on-bead protein aggregation capture (PAC) with ReSyn Biosciences MagReSyn® Hydoxyl microparticles (ratio Protein/Beads 1:5) in an automated King Fisher instrument (Thermo). Proteins were digested for 16 h at 37 C with LysC/Trypsin mix at a protein: enzyme ratio of 1:100 in 50 mM TEAB pH 8.0 (Trypsin Sequence grade, Sigma; LysC, Wako). The resulting peptides were speed-vac dried and dissolved in 100 µL of 200 mM HEPES pH 8.5.
Peptides (500 µg) were labeled with Thermo Scientific TMTpro 18plex™ Isobaric reagents for 1 h at 25 C. Reaction was quenched by adding 5% hydroxylamine for 15 min. Samples were pooled at a 1:1 ratio based on the total peptide amount, determined by comparing overall signal intensities on a regular LC-MS/MS run. The final mixture was desalted using a 500 mg Sep-Pak C18t cartridge (Waters) and dried prior to high pH reverse phase HPLC pre-fractionation.
Labeled peptides were fractionated offline through a high pH reverse phase chromatography using an Ultimate 3000 HPLC system equipped with a sample collector. Briefly, peptides were dissolved in 1200 µL of Buffer A (10 mM NH4OH) and loaded onto a XBridge BEH130 C18 column (3.5 µm, 250 mm length and 3.5 mm ID, Waters). Buffer B was composed of 10 mM NH4OH in 90% CH3CN. The following gradient was used at a flow rate of 500 µL/min: 0-50 min 0-25% B, 50-56 min 25-60% B, 56-57 min 60-90% B. One-minute fractions (500 µL) from […] were collected and neutralized with 10% formic acid. Based on the UV absorbance at 280 nm, 95% of the volume of 40 fractions was pooled in 5 fractions for Acetyl-Lysine enrichment. The 5% of these fractions was kept for proteome analysis. Pooled fractions were snap-frozen and lyophilized.
Lyophilized peptides (1.5 mg) from each pool were immuno-affinity purified with the PTMScan HS Acetyl-Lysine Motif (Ac−K) kit (Cell Signaling Technology). For each pool, three consecutive immuno-purifications (IPs) were performed using the manufacturer’s protocol in an automated King Fisher instrument (Thermo). Elution of purified peptides was performed in two consecutive steps of 50 μl of 0.15% TFA. Samples were desalted with C18 stage tips and eluates were vacuum dried and resuspended in 0.1% formic acid for subsequent analysis by LC−MS/MS.
LC-MS/MS was done by coupling an UltiMate 3000 RSLCnano LC system to an Orbitrap Exploris 480 mass spectrometer (Thermo Fisher Scientific). Samples were loaded into a trap column (Acclaim™ PepMap™ 100 C18 LC Columns 5 µm, 20 mm length) for 3 min at a flow rate of 10 µL/min in 0.1% FA. Peptides were then transferred to an EASY-Spray PepMap RSLC C18 column (Thermo) (2 µm, 75 µm x 50 cm) operated at 45 °C and separated using a 90 min effective gradient (buffer A: 0.1% FA; buffer B: 100% ACN, 0.1% FA) at a flow rate of 250 nL/min. The gradient used was, from 4% to 6% of buffer B the first 2 min, from 6% to 33% B the next 58 min, plus 10 additional minutes at 98% B.
The mass spectrometer was operated in a data-dependent mode, with an automatic switch between MS and MS/MS scans using a top 15 method. (Intensity threshold ≥ 1e4, dynamic exclusion of 20 sec and excluding charges unassigned, +1 and ≥ +7). MS spectra were acquired from 350 to 1500 m/z with a resolution of 60,000 FMHW (200 m/z). Ion peptides were isolated using a 0.7 Th window and fragmented using higher-energy collisional dissociation (HCD) with a normalized collision energy NCE of 36. MS/MS spectra were acquired with a fixed first mass of 120 m/z and a resolution of 45,000 FMHW (200 m/z). […]

[3] = ML-2, 48 h, replicates (Fig 4A)
[4] = ML-2, first (superseded) acetylome experiment, peer review file
[5] = distribution of acetylated sites in the acetylated proteins (Fig 4D)

Cc1[nH]c2ccccc2c1CCNCc1ccc(/C=C/C(=O)NO)cc1 [Panobinostat, reference compound]
CD11b (ML-2 [1]; [3]): 36.1% and 27.0% and 28.8%
Cell viability (ML-2 [1]; [3]): 69.0% and 63.1% and 66.5%
Number of proteins with >5 Acetyl-K sites per protein (ML-2 [2]): 11
Acetyl-K sites regulated, Number, Histone proteins (ML-2 [2]; Fig 4G): 52
Acetyl-K sites regulated, Number, Non-histone proteins (ML-2 [2]; Fig 4G): 587
Acetyl-K sites regulated, Percentages, Histone proteins (ML-2 [2]; Fig 4G): 8.1
Acetyl-K sites regulated, Percentages, Non-histone proteins (ML-2 [2]; Fig 4G): 91.9
Acetyl-K sites: Down-regulated, % (ML-2 [2]; ML-2 (Fig 4C)): 8.9%
Acetyl-K sites: Down-regulated, Number (ML-2 [2]; ML-2 (Fig 4C)): 322
Acetyl-K sites: Non-regulated, % (ML-2 [2]; ML-2 (Fig 4C)): 82.3%
Acetyl-K sites: Non-regulated, Number (ML-2 [2]; ML-2 (Fig 4C)): 2979
Acetyl-K sites: Quantified (total number) (ML-2 [2]; ML-2 (Fig 4C)): 3618
Acetyl-K sites: Regulated, % (ML-2 [2]; ML-2 (Fig 4C)): 17.7%
Acetyl-K sites: Regulated, Number (ML-2 [2]; ML-2 (Fig 4C)): 639
Acetyl-K sites: Up-regulated, % (ML-2 [2]; ML-2 (Fig 4C)): 8.8%
Acetyl-K sites: Up-regulated, Number (ML-2 [2]; ML-2 (Fig 4C)): 317
fraction of regulated acetylation sites upregulated (ML-2 [2]; ML-2, 25% GI50, 12 h): 49.6%
Acetyl-K sites, Down-regulated (ML-2 [2]; ML-2, 25% GI50, 12 h, Fig. 4C): 322
Acetyl-K sites, Up-regulated (ML-2 [2]; ML-2, 25% GI50, 12 h, Fig. 4C): 317
regulated Acetyl-K sites in Histone proteins (ML-2 [2]; ML-2, 25% GI50, 12 h, Fig. 4G): 52
regulated Acetyl-K sites in Non-histone proteins (ML-2 [2]; ML-2, 25% GI50, 12 h, Fig. 4G): 587
percentage of Acetyl-K sites regulated (ML-2 [2]; ML-2, 25% GI50, 12 h, of 3618 quantified): 17.7%
acetyl K-sites regulated specifically by the compound (ML-2 [2]; [4]): 232
fraction of regulated acetylation sites upregulated (ML-2 [2]; [4]): 53.2%
Number of proteins with 1 Acetyl-K site per protein (ML-2 [2]; [5]): 354
Number of proteins with 2 Acetyl-K sites per protein (ML-2 [2]; [5]): 56
Number of proteins with 3 Acetyl-K sites per protein (ML-2 [2]; [5]): 25
Number of proteins with 4 Acetyl-K sites per protein (ML-2 [2]; [5]): 6

CC1=C(/C=C/C(C)=C/C=C/C(C)=C/C(=O)O)C(C)(C)CCC1 [ATRA, all-trans retinoic acid, reference compound]
CD11b (%) (ML-2 [1]; ML-2 cell line, replicates 1-3 (Figure 2A)): 5.2% and 4.2% and 6.05%
